Molecules are shown by their SMILES. Where only a bound is given, the exact number is not on record here.

Test [1] has as its target Human immunodeficiency virus type 1 reverse transcriptase (Human immunodeficiency virus 1, UniProt Q72547). As to the kind of experiment: Inhibition of wild type HIV1 reverse transcriptase by scintillation proximity assay. (SPA uses beads or plates that emit light when radiolabelled molecules are held near them.)
The test system of test [2] is Human immunodeficiency virus 1. As to the kind of experiment: Antiviral activity against HIV1 with transcriptase […] mutation infected in human C8166 cells assessed as inhibition of viral replication after 3 days by ELISA. Type of test: functional, organism-based. The settings on record: Human immunodeficiency virus 1, C8166, 72 h. For orientation: ELISA stands for enzyme-linked immunosorbent assay.

In test [3] the test system is Human immunodeficiency virus 1. As to the kind of experiment: Antiviral activity against HIV1 infected in human C8166 cells assessed as inhibition of viral replication after 3 days by ELISA. The format is functional, organism-based. The settings on record: Human immunodeficiency virus 1, C8166, 72 h.

For the compound `Cc1ccc(-n2c(C)cnc2SCC(=O)Nc2ccc(-c3ccc(CC(=O)O)cc3)cc2Cl)c(Cl)c1`, the IC50 – broadly, the point on the concentration scale where inhibition reaches its midpoint – in test [1] amounted to 9.5 nM. The same measure, in the same setting: as for `C/C(=C/CCC(=O)Nc1ccc(-c2ccc(CC(=O)O)cc2)cc1Cl)c1ccc(C)cc1Cl`, the figure is 2.4 nM.

In turn, `Cc1ccc(-c2ncoc2SCC(=O)Nc2ccc(-c3ccc(CC(=O)O)cc3)cc2Cl)c(Cl)c1` came in with a half-inhibitory concentration (IC50) in test [1] of 365 nM. In the case of `Cc1[nH]nc(OCC(=O)Nc2ccc(C#CC(C)(C)CO)cc2Cl)c1-c1ccc(C(C)(C)C)cc1Cl`, the values for the concentration for a half-maximal effect (EC50) in test [2] and in test [3] were 177 nM and > 5000 nM, respectively. For the same compound, in test [1], the IC50 was > 3330 nM.

`Cc1ccc(-n2nccc2SCC(=O)Nc2ccc(-c3ccc(CC(=O)O)cc3)cc2Cl)c(Cl)c1` came in with an IC50 in test [1] of 7.9 nM. In the case of `Cc1ccc(-n2nnnc2SCC(=O)Nc2ccc(-c3ccc(OCC(=O)O)cc3)cc2Cl)c(Cl)c1`, the IC50 in test [1] came out at 1.9 nM. On the same count and under the same terms, for `C/C(=C/CCC(=O)Nc1ccc(-c2ccc(OCC(=O)O)cc2)cc1Cl)c1ccc(C)cc1Cl` the value was 15 nM; for `Cc1ccc(-c2ccccc2SCC(=O)Nc2ccc(-c3ccc(CC(=O)O)cc3)cc2Cl)c(Cl)c1`, 18 nM.

Turning to `Cc1ccc(-c2ncsc2SCC(=O)Nc2ccc(-c3ccc(CC(=O)O)cc3)cc2Cl)c(Cl)c1`, in test [1], the half-maximal inhibitory concentration (IC50) was determined as 200 nM.

As to `Cc1ccc(-c2c(SCC(=O)Nc3ccc(-c4ccc(CC(=O)O)cc4)cc3Cl)cnn2C)c(Cl)c1`, the IC50 in test [1] was found to be 1.9 nM. On to `Cc1[nH]nc(OCC(=O)Nc2ccc(-c3ccc(CC(=O)O)cc3)cc2Cl)c1-c1ccc(C(C)(C)C)cc1Cl`, for which the midpoint of inhibition in test [1], the IC50, lay at 2090 nM. On to `Cc1ccc(-n2nncc2SCC(=O)Nc2ccc(-c3ccc(CC(=O)O)cc3)cc2Cl)c(Cl)c1`, for which it took 2.4 nM to reach half-maximal inhibition in test [1] (IC50). `Cc1ccc(-n2ncc(C)c2SCC(=O)Nc2ccc(-c3ccc(CC(=O)O)cc3)cc2Cl)c(Cl)c1`: in test [1], the IC50 was > 10000 nM.

As to `Cc1[nH]nc(OCC(=O)Nc2ccc(C#CC(C)(C)C(=O)O)cc2Cl)c1-c1ccc(C(C)(C)C)cc1Cl`, the EC50 – broadly, the concentration giving half of the maximal effect – is 73 nM in test [2] and 3880 nM in test [3]. In test [1], this compound came in with an IC50 of 2400 nM. Consider `Cc1ccc(-c2ccccc2OCC(=O)Nc2ccc(-c3ccc(CC(=O)O)cc3)cc2Cl)c(Cl)c1`, for which the IC50 in test [1] came out at 177 nM. In turn, `Cc1ccc(-c2nnsc2SCC(=O)Nc2ccc(-c3ccc(CC(=O)O)cc3)cc2Cl)c(Cl)c1` returned a 50% inhibitory concentration (IC50) in test [1] of 2 nM. Consider `Cc1ccc(-n2cc(C)nc2SCC(=O)Nc2ccccc2Cl)c(Cl)c1`, for which the IC50 in test [1] was > 1000 nM. For the compound `Cc1ccc(-c2c(SCC(=O)Nc3ccc(-c4ccc(OCC(=O)O)cc4)cc3Cl)ccn2C)c(Cl)c1`, the concentration for half-maximal inhibition (IC50) in test [1] is > 1000 nM.

In test [1], `C/C(=C\CCC(=O)Nc1ccc(-c2ccc(OCC(=O)O)cc2)cc1Cl)c1ccc(C)cc1Cl` registered a half-maximal inhibitory concentration (IC50) of 272 nM. In the case of `Cc1ccc(-n2nccc2OCC(=O)Nc2ccc(-c3ccc(CC(=O)O)cc3)cc2Cl)c(Cl)c1`, in test [1], the IC50 came to 18 nM.

For the compound `CC(C)(C)c1ccc(-c2c[nH]nc2OCC(=O)Nc2ccc(-c3ccc(CC(=O)O)cc3)cc2Cl)c(Cl)c1`, the EC50 was found to be 444 nM in test [2] and 4870 nM in test [3]. For the same compound, the half-maximal inhibitory concentration (IC50) in test [1] is > 3300 nM.

(Values after ChEMBL document CHEMBL1136846, “Investigation on the role of the tetrazole in the binding of thiotetrazolylacetanilides with HIV-1 wild type and K103N/Y181C double mutant reverse transcriptases” (Bioorg Med Chem Lett, 2009).)
